Measurements published in ChEMBL document CHEMBL3232788, “1-(2-Hydroxy-2-methyl-3-phenoxypropanoyl)indoline-4-carbonitrile derivatives as potent and tissue selective androgen receptor modulators” (J Med Chem, 2014).
Converted amounts (≈) assume the structure as drawn. The source made the active and inactive calls. No cut-off for these calls is given here.

Columns and labels:
Androgen receptor [1] = target: T1, Androgen receptor (Homo sapiens, UniProt P10275); experiment: Displacement of [3H]mibolerone from full length human AR expressed in COS cells after 3.5 hrs by liquid scintillation counting; type: cell-based
T1 sequence (P10275 whole entry): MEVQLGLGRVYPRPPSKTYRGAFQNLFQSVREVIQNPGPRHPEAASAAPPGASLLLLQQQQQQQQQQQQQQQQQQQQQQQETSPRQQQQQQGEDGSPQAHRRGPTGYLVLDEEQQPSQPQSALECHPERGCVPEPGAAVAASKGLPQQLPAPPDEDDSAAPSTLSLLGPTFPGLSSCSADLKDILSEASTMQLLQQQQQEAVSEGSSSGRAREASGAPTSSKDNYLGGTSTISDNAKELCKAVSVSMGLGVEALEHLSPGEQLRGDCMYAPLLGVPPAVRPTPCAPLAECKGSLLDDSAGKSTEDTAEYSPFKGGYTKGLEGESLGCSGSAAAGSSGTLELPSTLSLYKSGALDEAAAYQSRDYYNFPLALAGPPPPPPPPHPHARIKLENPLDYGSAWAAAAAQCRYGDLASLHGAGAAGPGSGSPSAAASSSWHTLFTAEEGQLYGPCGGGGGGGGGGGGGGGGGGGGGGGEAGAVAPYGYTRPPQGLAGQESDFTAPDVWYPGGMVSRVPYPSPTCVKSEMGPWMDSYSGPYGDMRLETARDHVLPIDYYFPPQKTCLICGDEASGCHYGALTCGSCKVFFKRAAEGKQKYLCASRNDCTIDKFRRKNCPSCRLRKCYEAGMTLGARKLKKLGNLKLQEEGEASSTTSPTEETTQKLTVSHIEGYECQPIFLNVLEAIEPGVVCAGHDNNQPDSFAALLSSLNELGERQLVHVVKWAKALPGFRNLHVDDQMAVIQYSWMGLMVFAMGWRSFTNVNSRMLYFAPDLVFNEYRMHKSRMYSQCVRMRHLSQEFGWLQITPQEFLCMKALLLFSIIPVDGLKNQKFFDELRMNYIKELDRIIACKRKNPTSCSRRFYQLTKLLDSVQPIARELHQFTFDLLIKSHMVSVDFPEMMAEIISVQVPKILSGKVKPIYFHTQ

Androgen receptor [2] = target: T1, Androgen receptor; experiment: Agonist activity at human AR expressed in CV1 cells after 17 hrs by luciferase reporter gene assay; type: cell-based, CV-1
Androgen receptor [3] = target: T1, Androgen receptor; experiment: Binding affinity to human AR NTD (1 to 561 aa) expressed in CV1 cells coexpressing human AR-LBD (644-919 aa) assessed as N/C-termini interaction by androgenic assay; type: cell-based, CV-1
[4] = Aqueous solubility of the compound at pH 6.5; type: physicochemical
[5] = Clearance in human liver microsomes; type: ADME; conditions: read-out: CLH
[6] = Volume of distribution at steady state in Sprague-Dawley rat at 2 mg/kg, iv; type: ADME, organism-based; set-up: dose 2 mg/kg, route intravenous; conditions: in vivo, read-out: Vdss
[7] = AUC in Sprague-Dawley rat at 2 mg/kg, iv; type: ADME, organism-based; set-up: dose 2 mg/kg, route intravenous; conditions: plasma
[8] = Half life in Sprague-Dawley rat at 2 mg/kg, iv; type: ADME, organism-based; set-up: dose 2 mg/kg, route intravenous; conditions: in vivo
[9] = Cmax in Sprague-Dawley rat at 10 mg/kg, sc; type: ADME, organism-based; set-up: dose 10 mg/kg, route subcutaneous; conditions: in vivo
[10] = Tmax in Sprague-Dawley rat at 10 mg/kg, sc; type: ADME, organism-based; set-up: dose 10 mg/kg, route subcutaneous; conditions: in vivo
[11] = AUC in Sprague-Dawley rat at 10 mg/kg, sc; type: ADME, organism-based; set-up: dose 10 mg/kg, route subcutaneous; conditions: plasma
[12] = Half life in Sprague-Dawley rat at 10 mg/kg, sc; type: ADME, organism-based; set-up: dose 10 mg/kg, route subcutaneous; conditions: in vivo
[13] = Bioavailability in Sprague-Dawley rat at 10 mg/kg, sc; type: ADME, organism-based; conditions: in vivo
[14] = Cmax in Sprague-Dawley rat at 6 mg/kg, po; type: ADME, organism-based; set-up: dose 6 mg/kg, route oral; conditions: in vivo
[15] = Tmax in Sprague-Dawley rat at 6 mg/kg, po; type: ADME, organism-based; set-up: dose 6 mg/kg, route oral; conditions: in vivo
[16] = AUC in Sprague-Dawley rat at 6 mg/kg, po; type: ADME, organism-based; set-up: dose 6 mg/kg, route oral; conditions: plasma
[17] = Half life in Sprague-Dawley rat at 6 mg/kg, po; type: ADME, organism-based; set-up: dose 6 mg/kg, route oral; conditions: in vivo
[18] = Oral bioavailability in Sprague-Dawley rat at 6 mg/kg; type: ADME, organism-based; conditions: in vivo
Rattus norvegicus [19] = experiment: Increase in levator ani muscle weight in orchidectomized Sprague-Dawley rat at 3 to 30 mg/kg, sc qd for 4 days relative to vehicle-treated control; type: functional, organism-based
Rattus norvegicus [20] = experiment: Increase in prostate tissue weight in orchidectomized Sprague-Dawley rat at 3 to 30 mg/kg, sc qd for 4 days relative to vehicle-treated control; type: ADME, organism-based, Prostate gland; set-up: dose 3-30 mg/kg, route subcutaneous; conditions: in vivo, 96 h
Rattus norvegicus [21] = experiment: Increase in seminal vesicle weight in orchidectomized Sprague-Dawley rat at 3 to 30 mg/kg, sc qd for 4 days relative to vehicle-treated control; type: ADME, organism-based; set-up: dose 3-30 mg/kg, route subcutaneous; conditions: in vivo, 96 h
Rattus norvegicus [22] = experiment: Toxicity in Sprague-Dawley rat assessed as effect on serum luteinizing hormone level at 3 to 10 mg/kg, sc qd for 14 days relative to vehicle-treated control; type: organism-based; set-up: dose 3-10 mg/kg, route subcutaneous; conditions: in vivo, 336 h
Rattus norvegicus [23] = experiment: Toxicity in Sprague-Dawley rat assessed as effect on serum luteinizing hormone level at 100 mg/kg, sc qd for 14 days relative to vehicle-treated control; type: organism-based; set-up: dose 100 mg/kg, route subcutaneous; conditions: in vivo, 336 h
Rattus norvegicus [24] = experiment: Toxicity in Sprague-Dawley rat assessed as effect on serum total cholesterol level at 3 to 100 mg/kg, sc qd for 14 days relative to vehicle-treated control; type: organism-based; set-up: dose 3-100 mg/kg, route subcutaneous; conditions: in vivo, 336 h
Rattus norvegicus [25] = experiment: Toxicity in Sprague-Dawley rat assessed as effect on serum HDL level at 3 to 100 mg/kg, sc qd for 14 days relative to vehicle-treated control; type: organism-based; set-up: dose 3-100 mg/kg, route subcutaneous; conditions: in vivo, 336 h
Rattus norvegicus [26] = experiment: Toxicity in Sprague-Dawley rat assessed as effect on serum LDL level at 3 to 100 mg/kg, sc qd for 14 days relative to vehicle-treated control; type: organism-based; set-up: dose 3-100 mg/kg, route subcutaneous; conditions: in vivo, 336 h
Rattus norvegicus [27] = experiment: Toxicity in Sprague-Dawley rat assessed as effect on serum triglyceride level at 3 to 100 mg/kg, sc qd for 14 days relative to vehicle-treated control; type: organism-based; set-up: dose 3-100 mg/kg, route subcutaneous; conditions: in vivo, 336 h
[28] = target: Voltage-gated inwardly rectifying potassium channel KCNH2 (Homo sapiens, UniProt Q12809); experiment: Binding affinity to human ERG by dofetilide binding assay
[29] = Cytotoxicity against human THLE cells; type: cell-based
Cytochrome P450 1A2 = target: T2, Cytochrome P450 1A2 (Homo sapiens, UniProt P05177); experiment: Inhibition of CYP1A2 (unknown origin) at 3 uM; type: ADME
T2 sequence (P05177 whole entry): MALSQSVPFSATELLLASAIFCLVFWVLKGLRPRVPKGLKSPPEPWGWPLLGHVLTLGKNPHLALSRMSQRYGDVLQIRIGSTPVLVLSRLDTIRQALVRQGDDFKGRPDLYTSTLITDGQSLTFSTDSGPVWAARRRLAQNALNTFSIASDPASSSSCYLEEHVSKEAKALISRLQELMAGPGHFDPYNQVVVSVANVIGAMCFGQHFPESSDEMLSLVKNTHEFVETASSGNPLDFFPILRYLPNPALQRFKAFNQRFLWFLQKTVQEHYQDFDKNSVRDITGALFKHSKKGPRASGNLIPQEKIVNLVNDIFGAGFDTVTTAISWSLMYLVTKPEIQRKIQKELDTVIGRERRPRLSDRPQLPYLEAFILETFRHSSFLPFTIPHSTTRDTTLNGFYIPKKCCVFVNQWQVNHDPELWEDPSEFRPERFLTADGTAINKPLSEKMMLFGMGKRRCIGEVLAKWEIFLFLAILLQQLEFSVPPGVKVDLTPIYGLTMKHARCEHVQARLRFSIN

Cytochrome P450 2C8 = target: T3, Cytochrome P450 2C8 (Homo sapiens, UniProt P10632); experiment: Inhibition of CYP2C8 (unknown origin) at 3 uM; type: ADME
T3 sequence (P10632 whole entry): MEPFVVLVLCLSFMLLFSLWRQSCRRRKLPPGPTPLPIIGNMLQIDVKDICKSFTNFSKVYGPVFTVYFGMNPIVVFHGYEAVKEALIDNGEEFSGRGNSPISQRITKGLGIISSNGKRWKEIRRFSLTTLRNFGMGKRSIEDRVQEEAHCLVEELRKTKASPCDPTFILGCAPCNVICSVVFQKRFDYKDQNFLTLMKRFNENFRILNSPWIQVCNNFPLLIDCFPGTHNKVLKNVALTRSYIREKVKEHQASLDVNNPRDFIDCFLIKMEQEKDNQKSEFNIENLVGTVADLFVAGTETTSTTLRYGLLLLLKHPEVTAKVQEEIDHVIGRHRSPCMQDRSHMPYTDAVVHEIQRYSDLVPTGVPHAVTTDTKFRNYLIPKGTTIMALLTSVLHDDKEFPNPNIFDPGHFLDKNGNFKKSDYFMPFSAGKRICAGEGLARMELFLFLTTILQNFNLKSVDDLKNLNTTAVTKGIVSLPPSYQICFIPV

Cytochrome P450 2C9 = Cytochrome P450 2C9 (Homo sapiens, UniProt P11712); experiment: Inhibition of CYP2C9 (unknown origin) at 3 uM; type: ADME
Cytochrome P450 2D6 = Cytochrome P450 2D6 (Homo sapiens, UniProt P10635); experiment: Inhibition of CYP2D6 (unknown origin) at 3 uM; type: ADME
Cytochrome P450 3A4 = Cytochrome P450 3A4 (Homo sapiens, UniProt P08684); experiment: Inhibition of CYP3A4 (unknown origin) at 3 uM; type: ADME
[30] = Toxicity in sc dosed Sprague-Dawley rat administered qd for 14 days; type: organism-based; conditions: in vivo
Rattus norvegicus [31] = experiment: Increase in levator ani muscle weight in orchidectomized Sprague-Dawley rat at 1 mg/kg, sc qd for 4 days relative to vehicle-treated control; type: functional, organism-based; set-up: dose 1 mg/kg
Rattus norvegicus [32] = experiment: Increase in prostate tissue weight in orchidectomized Sprague-Dawley rat at 1 mg/kg, sc qd for 4 days relative to vehicle-treated control; type: ADME, organism-based, Prostate gland; set-up: dose 1 mg/kg, route subcutaneous; conditions: in vivo, 96 h
Rattus norvegicus [33] = experiment: Increase in seminal vesicle weight in orchidectomized Sprague-Dawley rat at 1 mg/kg, sc qd for 4 days relative to vehicle-treated control; type: ADME, organism-based; set-up: dose 1 mg/kg, route subcutaneous; conditions: in vivo, 96 h

Cytochrome P450 2D6, sequence (P10635 whole entry): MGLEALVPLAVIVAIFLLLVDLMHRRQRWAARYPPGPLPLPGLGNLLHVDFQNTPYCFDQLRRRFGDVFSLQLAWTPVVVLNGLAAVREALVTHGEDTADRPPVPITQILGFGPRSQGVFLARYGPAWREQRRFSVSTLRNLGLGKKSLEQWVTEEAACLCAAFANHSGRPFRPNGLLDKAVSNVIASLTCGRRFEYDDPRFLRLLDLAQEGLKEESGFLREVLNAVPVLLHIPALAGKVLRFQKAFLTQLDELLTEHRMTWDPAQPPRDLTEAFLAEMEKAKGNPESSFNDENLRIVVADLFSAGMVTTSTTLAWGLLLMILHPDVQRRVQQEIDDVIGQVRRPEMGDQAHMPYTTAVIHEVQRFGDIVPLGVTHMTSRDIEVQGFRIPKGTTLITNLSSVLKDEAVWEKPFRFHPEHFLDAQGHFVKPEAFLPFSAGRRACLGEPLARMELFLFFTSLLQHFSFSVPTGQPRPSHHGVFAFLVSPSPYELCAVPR
Cytochrome P450 3A4, sequence (P08684 whole entry): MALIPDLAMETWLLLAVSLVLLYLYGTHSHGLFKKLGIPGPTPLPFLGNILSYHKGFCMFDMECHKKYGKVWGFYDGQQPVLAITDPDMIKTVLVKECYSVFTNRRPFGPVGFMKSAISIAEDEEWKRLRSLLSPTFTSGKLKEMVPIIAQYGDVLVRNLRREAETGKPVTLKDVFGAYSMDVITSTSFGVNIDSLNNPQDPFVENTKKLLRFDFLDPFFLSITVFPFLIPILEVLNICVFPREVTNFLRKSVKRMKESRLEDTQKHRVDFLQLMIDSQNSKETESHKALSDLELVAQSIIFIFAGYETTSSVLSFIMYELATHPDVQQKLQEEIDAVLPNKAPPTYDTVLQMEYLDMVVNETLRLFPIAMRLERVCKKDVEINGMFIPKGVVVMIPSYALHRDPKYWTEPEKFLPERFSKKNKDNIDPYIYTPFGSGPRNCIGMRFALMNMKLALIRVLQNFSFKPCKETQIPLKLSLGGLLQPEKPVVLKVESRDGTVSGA
Voltage-gated inwardly rectifying potassium channel KCNH2, sequence (Q12809 whole entry): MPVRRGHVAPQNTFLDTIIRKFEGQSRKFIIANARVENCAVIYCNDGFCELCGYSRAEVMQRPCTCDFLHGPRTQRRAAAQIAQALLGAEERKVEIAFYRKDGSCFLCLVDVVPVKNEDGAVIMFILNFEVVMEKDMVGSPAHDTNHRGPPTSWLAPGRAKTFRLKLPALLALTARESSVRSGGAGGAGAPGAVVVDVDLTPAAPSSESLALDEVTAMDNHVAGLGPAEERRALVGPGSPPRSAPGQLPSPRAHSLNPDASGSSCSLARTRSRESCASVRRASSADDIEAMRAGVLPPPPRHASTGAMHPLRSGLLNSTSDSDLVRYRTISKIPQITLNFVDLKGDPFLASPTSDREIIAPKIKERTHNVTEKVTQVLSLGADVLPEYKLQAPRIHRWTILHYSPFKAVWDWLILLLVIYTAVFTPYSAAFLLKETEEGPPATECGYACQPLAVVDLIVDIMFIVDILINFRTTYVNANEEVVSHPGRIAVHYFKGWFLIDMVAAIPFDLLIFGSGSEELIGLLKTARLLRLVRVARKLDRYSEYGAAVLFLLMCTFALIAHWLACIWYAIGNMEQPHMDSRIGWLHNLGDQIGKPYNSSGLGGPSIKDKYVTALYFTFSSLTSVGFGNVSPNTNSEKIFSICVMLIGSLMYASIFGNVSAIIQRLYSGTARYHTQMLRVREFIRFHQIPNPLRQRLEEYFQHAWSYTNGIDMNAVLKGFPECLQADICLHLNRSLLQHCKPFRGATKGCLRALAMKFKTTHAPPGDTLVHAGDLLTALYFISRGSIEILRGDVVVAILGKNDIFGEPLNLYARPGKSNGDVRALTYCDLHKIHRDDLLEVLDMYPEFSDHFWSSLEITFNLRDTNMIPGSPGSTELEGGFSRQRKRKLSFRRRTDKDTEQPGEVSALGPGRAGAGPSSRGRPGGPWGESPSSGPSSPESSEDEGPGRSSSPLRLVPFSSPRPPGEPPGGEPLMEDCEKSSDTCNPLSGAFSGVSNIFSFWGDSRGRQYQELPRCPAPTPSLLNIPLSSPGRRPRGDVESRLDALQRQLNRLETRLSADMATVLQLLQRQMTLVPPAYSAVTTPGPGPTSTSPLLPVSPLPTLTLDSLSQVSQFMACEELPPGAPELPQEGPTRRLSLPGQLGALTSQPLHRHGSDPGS
Cytochrome P450 2C9, sequence (P11712 whole entry): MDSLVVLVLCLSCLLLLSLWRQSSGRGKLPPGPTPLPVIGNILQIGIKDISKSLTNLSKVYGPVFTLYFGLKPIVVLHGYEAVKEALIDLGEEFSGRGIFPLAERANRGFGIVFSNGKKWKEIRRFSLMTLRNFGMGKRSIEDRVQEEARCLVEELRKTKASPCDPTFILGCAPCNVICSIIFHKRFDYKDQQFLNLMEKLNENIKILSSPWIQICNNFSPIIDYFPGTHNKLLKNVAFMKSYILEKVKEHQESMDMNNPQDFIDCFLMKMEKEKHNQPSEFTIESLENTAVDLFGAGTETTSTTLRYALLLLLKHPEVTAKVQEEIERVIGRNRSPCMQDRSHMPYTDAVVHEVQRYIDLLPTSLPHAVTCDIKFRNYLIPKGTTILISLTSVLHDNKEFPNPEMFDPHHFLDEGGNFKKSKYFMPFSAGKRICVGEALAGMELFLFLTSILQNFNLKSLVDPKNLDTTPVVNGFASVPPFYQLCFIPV

C[C@](O)(COc1ccc(F)cc1)C(=O)N1CCc2c(C#N)cccc21
IC50 (Androgen receptor [1]): 12.7 nM
EC50 (Androgen receptor [2]): 2.5 nM
EC50 (Androgen receptor [3]): > 10000 nM
solubility [4]: 14 µM (≈ 4.76 µg/mL)
microsomal CLint [5]: 21 µL/min/mg
Vd [6]: 6 L/kg
AUC [7]: 1100 ng·h/mL
half-life [8]: 5 h
Cmax [9]: 166 ng/mL
Tmax [10]: 4 h
AUC [11]: 2030 ng·h/mL
half-life [12]: 6 h
bioavailability [13]: 37%
Cmax [14]: 254 ng/mL
Tmax [15]: 8 h
AUC [16]: 3750 ng·h/mL
half-life [17]: 5 h
bioavailability [18]: > 100%
Activity (Rattus norvegicus [19]): Active
Activity (Rattus norvegicus [20]): Non-toxic
Activity (Rattus norvegicus [21]): Non-toxic
Activity (Rattus norvegicus [22]): Non-toxic
Activity (Rattus norvegicus [23]): Non-toxic
Activity (Rattus norvegicus [24]): Non-toxic
Activity (Rattus norvegicus [25]): Non-toxic
Activity (Rattus norvegicus [26]): Non-toxic
Activity (Rattus norvegicus [27]): Non-toxic
IC50 [28]: > 100000 nM
IC50 [29]: > 300000 nM
inhibition (INH) (Cytochrome P450 1A2): Not Active
inhibition (INH) (Cytochrome P450 2C8): Not Active
inhibition (INH) (Cytochrome P450 2C9): Not Active
inhibition (INH) (Cytochrome P450 2D6): Not Active
inhibition (INH) (Cytochrome P450 3A4): Not Active
MTD at 336 h [30]: 100 mg/kg

CCC(=O)O[C@H]1CC[C@H]2[C@@H]3CCC4=CC(=O)CC[C@]4(C)[C@H]3CC[C@]12C [TESTOSTERONE PROPIONATE]
Activity (Rattus norvegicus [31]): Active
Activity (Rattus norvegicus [32]): Toxic
Activity (Rattus norvegicus [33]): Toxic

C[C@](O)(COc1ccc(F)cc1C#N)C(=O)N1CCc2c(C#N)cccc21
IC50 (Androgen receptor [1]): 9.1 nM
EC50 (Androgen receptor [2]): 0.074 nM
EC50 (Androgen receptor [3]): 0.74 nM

C[C@](O)(COc1ccc(-c2cocn2)cc1)C(=O)N1CCc2c(C#N)cccc21
IC50 (Androgen receptor [1]): 179 nM
EC50 (Androgen receptor [2]): 7.2 nM
EC50 (Androgen receptor [3]): > 10000 nM

C[C@](O)(COc1ccccc1F)C(=O)N1CCc2c(C#N)cccc21
IC50 (Androgen receptor [1]): 10.1 nM
EC50 (Androgen receptor [2]): 14.8 nM
EC50 (Androgen receptor [3]): > 10000 nM

C[C@](O)(COc1ccccc1C#N)C(=O)N1CCc2c(C#N)cccc21
IC50 (Androgen receptor [1]): 14.3 nM
EC50 (Androgen receptor [2]): 0.15 nM
EC50 (Androgen receptor [3]): 0.77 nM
